ChEMBL document CHEMBL2321823, “Synthesis of novel analogs of cabergoline: improving cardiovascular safety by removing 5-HT2B receptor agonism” (ACS Med Chem Lett, 2013)

Columns and labels:
[1] = target: T1, 5-hydroxytryptamine receptor 2B (Homo sapiens, UniProt P41595); experiment: Displacement of [125I](+/-)DOI from human 5-HT2B receptor transfected in CHO cell membrane after 60 mins by scintillation counting analysis; format: cell membranes
5-HT2B receptor [2] = target: T2, 5-HT2B receptor (Homo sapiens, UniProt P41595); experiment: (§1) Agonist activity at human 5-HT2B receptor transfected in CHO cell assessed as IP1 production incubated for 30 mins measured by HTRF detection method; format: cell-based; conditions: human, CHO cells transfected with human 5-HT2B receptor
[3] = target: T1, 5-hydroxytryptamine receptor 2B; experiment: Antagonist activity at human 5-HT2B receptor transfected in CHO cell assessed as decrease in 5-HT-induced IP1 production preincubated for 5 mins before 5-HT addition measured after 30 mins by HTRF detection method; format: functional, cell-based
5-HT2B receptor [4] = target: T2, 5-HT2B receptor; experiment: (§2) Partial agonist activity at human 5-HT2B receptor expressed in HEK293 cells assessed as intracellular calcium mobilization by FLIPR analysis; format: cell-based; conditions: HEK293 cells expressing human 5-HT2B receptor
[5] = target: T1, 5-hydroxytryptamine receptor 2B; experiment: as §1; format: cell-based; conditions: for Activity: human, cho, 0.5 h
[6] = target: 5-hydroxytryptamine receptor 2A (Homo sapiens, UniProt P28223); experiment: Antagonist activity at human 5-HT2A receptor assessed as decrease in agonist-induced intracellular calcium mobilization preincubated for 10 mins prior to agonist addition measured by FLIPR analysis; format: functional, cell-based
[7] = target: D(2) dopamine receptor (Homo sapiens) (UniProt P14416); experiment: Partial agonist activity at human D2 receptor transfected in HTLA cells measured after overnight incubation by luminescence counter analysis; format: cell-based
[8] = target: T1, 5-hydroxytryptamine receptor 2B; experiment: as §2; format: cell-based; conditions: hek293

T1 sequence (P41595 whole entry): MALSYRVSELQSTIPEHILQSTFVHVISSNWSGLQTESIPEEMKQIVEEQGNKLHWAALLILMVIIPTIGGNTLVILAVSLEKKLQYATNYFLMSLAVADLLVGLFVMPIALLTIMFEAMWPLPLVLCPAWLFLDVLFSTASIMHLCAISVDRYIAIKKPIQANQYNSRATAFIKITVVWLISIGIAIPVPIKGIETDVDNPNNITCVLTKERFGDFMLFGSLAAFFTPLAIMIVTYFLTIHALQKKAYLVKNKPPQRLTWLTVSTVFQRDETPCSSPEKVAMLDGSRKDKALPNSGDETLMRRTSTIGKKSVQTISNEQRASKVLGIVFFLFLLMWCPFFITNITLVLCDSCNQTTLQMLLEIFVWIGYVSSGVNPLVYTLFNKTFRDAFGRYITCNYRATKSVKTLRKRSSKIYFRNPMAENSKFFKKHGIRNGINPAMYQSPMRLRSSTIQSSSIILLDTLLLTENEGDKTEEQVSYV
T2 sequence (P41595 whole entry): as above
Chain of 5-hydroxytryptamine receptor 2A (P28223 whole entry): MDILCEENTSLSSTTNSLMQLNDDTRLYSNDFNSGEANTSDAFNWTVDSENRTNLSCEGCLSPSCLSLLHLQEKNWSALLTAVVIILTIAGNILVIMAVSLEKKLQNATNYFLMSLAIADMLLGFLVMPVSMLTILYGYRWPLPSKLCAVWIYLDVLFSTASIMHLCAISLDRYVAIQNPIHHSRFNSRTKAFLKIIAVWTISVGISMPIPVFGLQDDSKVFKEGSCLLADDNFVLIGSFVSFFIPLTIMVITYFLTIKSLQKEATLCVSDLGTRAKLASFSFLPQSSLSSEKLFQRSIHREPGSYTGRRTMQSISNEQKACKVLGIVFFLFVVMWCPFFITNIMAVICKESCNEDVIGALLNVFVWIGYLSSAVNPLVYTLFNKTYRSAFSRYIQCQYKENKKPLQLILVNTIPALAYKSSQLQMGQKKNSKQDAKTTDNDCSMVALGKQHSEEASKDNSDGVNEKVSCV
Chain of D(2) dopamine receptor (Homo sapiens) (P14416 whole entry): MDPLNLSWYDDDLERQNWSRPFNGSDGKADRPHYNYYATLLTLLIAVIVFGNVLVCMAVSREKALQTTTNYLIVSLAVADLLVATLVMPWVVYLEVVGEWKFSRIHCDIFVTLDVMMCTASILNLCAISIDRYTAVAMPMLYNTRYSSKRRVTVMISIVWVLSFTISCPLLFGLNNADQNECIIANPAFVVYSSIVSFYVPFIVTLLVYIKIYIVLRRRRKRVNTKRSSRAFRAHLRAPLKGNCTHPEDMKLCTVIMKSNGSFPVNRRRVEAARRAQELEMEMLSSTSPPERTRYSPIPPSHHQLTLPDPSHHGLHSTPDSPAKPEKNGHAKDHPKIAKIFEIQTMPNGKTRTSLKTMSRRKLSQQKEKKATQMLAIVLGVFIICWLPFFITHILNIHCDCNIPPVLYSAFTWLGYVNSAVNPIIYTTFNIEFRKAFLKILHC

CN(C)CCCNC(=O)[C@@H]1C[C@@H]2c3cccc4c3c(cn4C)C[C@H]2N(C)C1
Ki [1]: 0.97 nM
Emax at 0.5 h (5-HT2B receptor [2]): < 12%
IC50 [3]: 37 nM
Kb [3]: 9.3 nM
Emax (5-HT2B receptor [4]): < 12%

C=CCN1C[C@H](C(=O)N(CCCN2CCOCC2)C(=O)NCC)C[C@@H]2c3cccc4[nH]cc(c34)C[C@H]21
Ki [1]: 7.1 nM
Emax at 0.5 h (5-HT2B receptor [2]): 106%
EC50 [5]: 13 nM

C=CCN1C[C@H](C(=O)N(CCCN(C)C)C(=O)NCC)C[C@@H]2c3cccc4[nH]cc(c34)C[C@H]21 [CABERGOLINE]
Ki [1]: 1.4 nM
Emax at 0.5 h (5-HT2B receptor [2]): 103%
EC50 [5]: 13 nM

CCNC(=O)N(CCCN(C)C)C(=O)[C@@H]1C[C@@H]2c3cccc4c3c(cn4C)C[C@H]2N(C)C1
Ki [1]: 1 nM
IC50 [6]: 11500 nM
Activity [5]: Not Active
Emax [7]: 50%
IC50 [3]: 22 nM
Kb [3]: 5.6 nM
Activity [8]: Not Active

COC(OC)[C@@H]1C[C@@H]2c3cccc4c3c(cn4C)C[C@H]2N(C)C1
Ki [1]: 0.54 nM
Activity [5]: Not Active
IC50 [3]: 13 nM
Kb [3]: 3.3 nM
Activity [8]: Not Active
